Read-outs that look alike come from different tables or passages of the source.
How the values were obtained:
[1] = system: LNCaP prostate tumor xenografts; assay type: in vivo, athymic Balb/c nu/nu mice; details: for change in tumor growth (FIG. 24): alone or with CV787 1×10^10 particles, 5 week period
[2] = system: LNCaP prostate tumor xenografts; assay: LNCaP xenograft antitumor efficacy, intratumorally administered CV787 with paclitaxel; assay type: in vivo, athymic Balb/c nu/nu mice; details: 6 weeks after treatment
Method: Six to eight week old athymic Balb/c nu/nu mice were obtained from Simonson Laboratories (Gilroy, Calif.) and acclimatized to laboratory conditions one week prior to tumor implantation. Xenografts were established by injecting 1×10^6 LNCaP cells subcutaneously near the small of the back suspended in 100 μl of RPMI 1640 and 100 μl of maltrigel (Collaborative Biochemical Products). When tumors reached between 400 mm^3 and 600 mm^3, mice were randomized in groups of four each to receive either 1×10^10 particles of CV787 at day 1 via the tail vein or paclitaxel, 20 mg/kg intraperitoneally (i.p.) daily for 4 days starting at day 2, versus controls treated with normal saline 0.1 ml i.v. at day 1 and then i.p. for 4 days. […] Tumors were measured weekly in two dimensions by external caliper and volume was estimated by the formula [length (mm)×width (mm)^2]/2. […]
The in vivo antitumor efficacy of intratumorally administered CV787 and the interaction of CV787 in the combination with paclitaxel was assessed in the LNCaP mouse xenograft model as described above. […]
All treatment groups received identical injections of the active agent or vehicle control into both the tumor and peritoneum. Tumor volume was measured just before the injection of test articles and once a week for 6 weeks thereafter.

[3] = system: LNCaP prostate tumor xenografts; assay type: in vivo, athymic Balb/c nu/nu mice
Source text: Six to eight week old athymic Balb/c nu/nu mice were obtained from Simonson Laboratories (Gilroy, Calif.) and acclimatized to laboratory conditions one week prior to tumor implantation. Xenografts were established by injecting 1×10^6 LNCaP cells, suspended in 100 μd of RPMI 1640 and 100 μd of matrigel, subcutaneously near the small of the back. When tumors reached between 400 mm^3 and 600 mm^3, mice were randomized into groups of four. The first group received 1×10^10 particles of CV787 at day 1 via the tail vein intravenously (i.v.). CV787 was diluted in 0.1 ml lyophilized buffer (5% sucrose, 1% glycine, 1 mM MgCl2, 0.05% Tween-80 in 10 mM Tris buffer) and injected into the tail vein using a 28-gauge needle. The second group was given taxane only. Paclitaxel was intraperitoneally administered at a dose of 20 mg/kg, daily for 4 days starting at day 2. Docetaxel was intravenously administered at a dose of 5 or 12.5 mg/kg at day 2, 5 and 8. The third group was given CV787 (i.v.) at day 1 and taxane at the same doses and schedule as the second group. As a control, a fourth group was treated with 0.1 ml of normal saline (i.e. control) i.v. at day 1 and then i.p. or i.v. for 4 days. The dose and route of administration of paclitaxel were selected according to studies in nude mice (Riondel, J. et al., 1986, Cancer Chemother Pharmacol. 17:137-42.) (Chahinian, A. P. et al., 1998, J. Surg. Onc. 67:104-111.). For docetaxel, the dose was selected based on the human clinical dose. (RPR Pharm. Inc., Collegeville, Pa.) and determined by a dose-range finding study in nude mice. Tumors were measured weekly in two dimensions by external caliper and volume was estimated by the formula [length (mm)×width (mm)^2]/2 (7). Animals were humanely killed when their tumor burden became excessive. Serum was harvested weekly by retro-orbital bleed. The difference in mean tumor volume between treatment groups was compared for statistical significance using the unpaired, two-tailed, t-test. Blood samples were collected at various time points for determining prostate-specific antigen. Federal and institutional guidelines for animal care were followed.
Six to eight week old athymic Balb/c nu/nu mice were obtained from Simonson Laboratories (Gilroy, Calif.) and acclimatized to laboratory conditions one week prior to tumor implantation. Xenografts were established by injecting 1×10^6 LNCaP cells subcutaneously near the small of the back suspended in 100 μl of RPMI 1640 and 100 μl of maltrigel (Collaborative Biochemical Products). When tumors reached between 400 mm^3 and 600 mm^3, mice were randomized in groups of four each to receive either 1×10^10 particles of CV787 at day 1 via the tail vein or paclitaxel, 20 mg/kg intraperitoneally (i.p.) daily for 4 days starting at day 2, versus controls treated with normal saline 0.1 ml i.v. at day 1 and then i.p. for 4 days. In addition, another group of mice received the combination of CV787 and paclitaxel at the same doses and schedule as above. CV787 was diluted in lyophilized buffer and injected into tail vein in a volume of 0.1 ml using a 28-gauge needle. The dose and route of administration of paclitaxel were selected according to studies in nude mice by Riondel et al., (1986) Cancer Chemother Pharmacol. 17:137. These authors conducted acute toxicity studies of paclitaxel in nude mice and selected the unit dose of 12.5 mg/kg daily, being 1/20th of the LD50 dose (lethal dose for 50% of animals). Tumors were measured weekly in two dimensions by external caliper and volume was estimated by the formula [length (mm)×width (mm)^2]/2. Animals were humanely killed when their tumor burden became excessive. Serum was harvested weekly by retro-orbital bleed. The difference in mean tumor volume between treatment groups was compared for statistical significance using the unpaired, two-tailed, t-test. Blood samples were collected at various time points for determining prostate-specific antigen (PSA). […]

[4] = system: LNCaP (prostate carcinoma) cells; assay: cells; assay type: cell-based, human; details: for cell survival: LNCaP, CV787 MOI 0.01
Method: In preliminary experiments, we examined the chemosensitivity to different agents, as well as the oncolytic effect of CV787 in the prostate carcinoma LNCaP cells. Cells were plated in 96-well plates at a density of 20,000 cells per well. […] […] Cells were incubated at 37° C. in 5% CO2 for an additional two days. Cell viability was measured using the MTT assay. Mosmann et al., (1983). Briefly, 50 μl of 1 mg/ml MTT vital dye (Sigma, St. Louis, Mo.) was added to each well and allowed to incubate for 3 h at 37° C. and 5% CO2. Then, plates were drained to remove untransformed MTT and blot. 100 μl of isopropanol was added to each well, the plate was incubated for 15 minutes and vigorously shaken (Microshaker II, Dynatech) in order to ensure solubilization of the blue formazan. The optical density of each well was quantitated using an automatic plate reader (Molecular Devices, Sunnyvale, Calif.) with a 560 nm test wavelength and 690 nm reference wavelength. Cell viability was defined as the ratio of the mean absorbance of 9 treatment wells minus the blank to the mean absorbance of 6 untreated matched controls minus the blank. […] Each experiment was performed at least twice.
To study potential synergy or enhancement in treatment when administering CV787 and chemotherapy in vitro, the effectiveness of the combined treatment at several concentrations of paclitaxel, ranging from 0-62.5 nM, […], with CV787 at various MOIs, ranging from 0-10 MOI, was evaluated in the prostate carcinoma LNCaP cells. Cells were treated with CV787 and paclitaxel or docetaxel and the cell viability was determined at various time points after treatment by an MTT assay, as shown in FIGS. 2-4. […] To determine whether the timing of administration for the testing articles affected the combined oncolytic effect, LNCaP cells were treated with paclitaxel for 24 hours before or after infection with CV787.
The protocols described above were used to screen a number of different chemotherapeutic agents from various classes of chemotherapeutics. […]

[5] = assay type: in vivo, Balb/C mice; details: docetaxel alone
Source text: Finally, and of clinical significance are two other results. […] Indeed, animals treated with both CV787 and taxotere gain 24% more weight than untreated control animals (Table 2).

[6] = system: caspase-7, poly-ADP-ribose-polymerase, Fas/Fas-L, Bcl-2, Bcl-XL, Bax; assay: Immunoblot of apoptosis related protein markers in treated LNCaP cells; assay type: cell-based, human; details: docetaxel 6.0 nM, CV787 MOI 0.5
Source text: Enhanced chemiluminescence (ECL; Amersham Pharmacia) was used for detection. […] All antibodies were used according manufacturer's instruction.

[7] = CV787 1×10^10 particles i.v. single dose, paclitaxel 20 mg/kg 4 doses

SMILES | change in tumor growth (FIG. 24) ([1]; paclitaxel 2 mg/kg) | change in tumor growth (FIG. 24) ([1]; paclitaxel 10 mg/kg) | average tumor volume ([2]; CV787 1×10^7 particles/mm^3 intratumoral day 1, paclitaxel 15 mg/kg daily for four days) | average tumor volume, % of baseline ([2]; CV787 1×10^7 particles/mm^3 intratumoral, paclitaxel 15 mg/kg) | time after treatment at which the regression was produced [3, 7] | tumor regression produced [3, 7] | tumor growth inhibition compared with the control group ([3]; day 21, CV787 1×10^10 particles, paclitaxel 20 mg/kg) | relative tumor volume, % of baseline ([3]; four weeks after treatment, CV787 1×10^10 particles i.v. day 1, paclitaxel 20 mg/kg i.p. daily for 4 days) | relative tumor volume, % of baseline ([3]; ten weeks after treatment, CV787 1×10^10 particles i.v., paclitaxel 20 mg/kg) | cell survival ([4]; 6 days after virus infection, paclitaxel 6.25 nM) | relative tumor volume, % of baseline ([1]; four weeks after treatment, CV787 1×10^10 particles i.v. day 1, docetaxel 10 mg/kg i.v.) | body weight [5] | change of Bcl-2 expression [6] | effect of single agent on tumor growth ([3]; CV787 1×10^10 particles i.v., docetaxel 5.0 mg/kg i.v.) | minimum tumor volume, % of the original tumor volume ([3]; docetaxel 5 mg/kg alone, reached by week 1) | course of tumor volume (FIG. 29) ([3]; docetaxel 5 mg/kg, CV787 1×10^10 particles (CV787 alone also 1×10^11 particles), 6 weeks) | IC50 ([4]; Homo sapiens, 120 h, LNCaP cells, day 5, dose-response curve analysis) | cell survival ([4]; day 7 post treatment, % of the control, docetaxel 3.12 nM 24 hour before virus)
CC(=O)O[C@H]1C(=O)[C@@]2(C)[C@H]([C@H](OC(=O)c3ccccc3)[C@]3(O)C[C@H](OC(=O)[C@H](O)[C@@H](NC(=O)c4ccccc4)c4ccccc4)C(C)=C1C3(C)C)[C@]1(OC(C)=O)CO[C@@H]1C[C@@H]2O [paclitaxel] | progressive enlargement of the tumor | merely arrests tumor growth | 630 mm^3 | 166 % of baseline | 2 weeks | partial tumor regression | 70% | 31 % of baseline | 149 % of baseline | 100% | – | – | – | – | – | – | – | –
CC(=O)O[C@@]12CO[C@@H]1C[C@H](O)[C@@]1(C)C(=O)[C@H](O)C3=C(C)[C@@H](OC(=O)[C@H](O)[C@@H](NC(=O)OC(C)(C)C)c4ccccc4)C[C@@](O)([C@@H](OC(=O)c4ccccc4)[C@H]21)C3(C)C [docetaxel] | – | – | – | – | – | – | – | – | – | – | 49 % of baseline | transient weight loss | did not observe a significant change | stabilization of tumor growth | approximately 50% | by week 6 has reached the starting tumor volume | 8.14 nM | 95%

Reference: patent US7276233B2, “Methods of treating neoplasia with combinations of target cell-specific adenovirus and chemotherapy” (priority 2001, dated 2007)
